In patent US12552796B2, “EED inhibitor, and preparation method therefor and use thereof” (SHANGHAITECH UNIVERSITY, priority 2019, dated 2026) one finds IC50 data, which are given here for 82 compounds.

By IC50 is commonly meant the midpoint of a concentration-inhibition curve.

In one assay the test system is cellular H3K27 methylation. Nature of the assay: Cellular H3K27 methylation assay (Western blot of H3K27me3 in HeLa cells). Particulars: Homo sapiens, 72 h; HeLa cells, 3 days, H3K27me3 level by Western blot; read-out: PD IC50. The class given is cell-based. Background: Immunoblotting shows a protein as a band on a membrane.
With `O=C(Nc1cnc(NCc2c(F)ccc3c2CCO3)n2cnnc12)c1ccno1` [HJM-096], the half-maximal inhibitory concentration (IC50) came out at 89.9 nM.

In the case of `O=C(CCc1ccccc1)Nc1cnc(NCc2c(F)ccc3c2CCO3)n2cnnc12` [HJM-089], the IC50 turned out to be 256 nM.

For the compound `CCC(=O)Nc1cnc(NCc2c(F)ccc3c2CCO3)n2cnnc12` [HJM-070], the concentration for half-maximal inhibition (IC50) was determined as 83.1 nM.

With `COc1ccc(C(=O)Nc2cnc(NCc3c(F)ccc4c3CCO4)n3cnnc23)cn1` [HJM-091], the IC50 came to 291 nM.

Take `COc1cnc(NCc2c(F)ccc3c2CCO3)n2cnnc12` [HJM-014]: the IC50 stood at 43.7 nM.

Consider `O=C(Nc1cnc(NCc2c(F)ccc3c2CCO3)n2cnnc12)C1CCCC1` [HJM-036], for which the concentration for half-maximal inhibition (IC50) is 160 nM.

Consider `CNC(=O)COc1cnc(NCc2c(F)ccc3c2CCO3)n2cnnc12` [HJM-148], for which the half-maximal inhibitory concentration (IC50) worked out at 1090 nM.

Turning to `COC1CCC(Oc2cnc(NCc3c(F)ccc4c3CCO4)n3cnnc23)CC1` (stereo not shown) [HJM-122], the IC50 was 54.9 nM.

As for `COC1CCN(c2cnc(NCc3c(F)ccc4c3CCO4)n3cnnc23)C1` (stereo not shown) [HJM-063], the 50% inhibitory concentration (IC50) was 684 nM.

Consider `COc1cccc(F)c1CNc1ncc(Oc2cccnc2C)c2nncn12` [HJM-048], for which the 50% inhibitory concentration (IC50) was 1620 nM.

In the case of `CN1CCOC(C(=O)Nc2cnc(NCc3c(F)ccc4c3CCO4)n3cnnc23)C1` (stereo not shown) [HJM-086], the half-inhibitory concentration (IC50) came to 188 nM.

For `Fc1ccc2c(c1CNc1ncc(OCCn3ccnc3)c3nncn13)CCO2` [HJM-144], the IC50 was found to be 71.7 nM.

Take `CNCCOc1cnc(NCc2c(F)ccc3c2CCO3)n2cnnc12` [HJM-118]: the concentration for half-maximal inhibition (IC50) is 792 nM.

In the case of `CN(C)CC(=O)Nc1cnc(NCc2c(F)ccc3c2CCO3)n2cnnc12` [HJM-081], the IC50 was 77.6 nM.

In the case of `CS(=O)(=O)Nc1cnc(NCc2c(F)ccc3c2CCO3)n2cnnc12` [HJM-065], the 50% inhibitory concentration (IC50) came out at 363 nM.

Consider `Cc1cccc(COc2cnc(NCc3c(F)ccc4c3CCO4)n3cnnc23)n1` [HJM-143], for which the half-maximal inhibitory concentration (IC50) came to 204 nM.

In the case of `Fc1ccc2c(c1CNc1ncc(C3CCN(C4COC4)CC3)c3nncn13)CCO2` [HJM-060], the half-inhibitory concentration (IC50) is 141 nM.

As for `CN1CC(C(=O)Nc2cnc(NCc3c(F)ccc4c3CCO4)n3cnnc23)C1` [HJM-087], the IC50 came to 235 nM.

For `Fc1ccc2c(c1CNc1ncc(C3CCN(C4CC4)CC3)c3nncn13)CCO2` [HJM-059], the half-maximal inhibitory concentration (IC50) turned out to be 38.5 nM.

For the compound `CCCN(C(=O)C1CC1)c1cnc(NCc2c(F)ccc3c2CCO3)n2cnnc12` [HJM-080], the IC50 is 35 nM.

On to `[2H]C([2H])([2H])N(C(=O)C1CC1)c1cnc(NCc2c(F)ccc3c2CCO3)n2cnnc12` [HJM-076], for which the IC50 was determined as 6.36 nM.

Regarding `Fc1ccc2c(c1CNc1ncc(C3CC3)c3nncn13)CCO2` [HJM-002], the IC50 was 98.8 nM.

As to `COc1cccc(F)c1CNc1ncc(CCc2cccnc2C)c2nncn12` [HJM-047], the IC50 amounted to 7000 nM.

Consider `COC1CCC(COc2cnc(NCc3c(F)ccc4c3CCO4)n3cnnc23)CC1` (stereo not shown) [HJM-123], for which the half-maximal inhibitory concentration (IC50) turned out to be 132 nM.

`Fc1ccc2c(c1CNc1ncc(/C=C/CN3CCOCC3)c3nncn13)CCO2` [HJM-007]: the half-inhibitory concentration (IC50) turned out to be 49.9 nM.

Turning to `O=C1CCN(c2cnc(NCc3c(F)ccc4c3CCO4)n3cnnc23)CC1` [HJM-064], the half-maximal inhibitory concentration (IC50) was determined as 180 nM.

Turning to `[2H]C([2H])(Oc1cnc(NCc2c(F)ccc3c2CCO3)n2cnnc12)C1COC1` [HJM-113], the IC50 amounted to 59.7 nM.

Consider `CC(=O)N1CC(COc2cnc(NCc3c(F)ccc4c3CCO4)n3cnnc23)C1` [HJM-117], for which the IC50 stood at 1300 nM.

As to `COCCC(COC)c1cnc(NCc2c(F)ccc3c2CCO3)n2cnnc12` (stereo not shown) [HJM-012], the IC50 turned out to be 112 nM.

`COc1ccc(C(=O)Nc2cnc(NCc3c(F)ccc4c3CCO4)n3cnnc23)cc1` [HJM-090]: the half-inhibitory concentration (IC50) stood at 198 nM.

For `Fc1ccc2c(c1CNc1ncc(C3CCOC3)c3nncn13)CCO2` (stereo not shown) [HJM-054], the IC50 was 31.1 nM.

`O=C(Nc1cnc(NCc2c(F)ccc3c2CCO3)n2cnnc12)C1CCC1` [HJM-035]: the IC50 stood at 53.6 nM.

On to `COc1cccc(F)c1CNc1ncc(/C=C/c2cccnc2C)c2nncn12` [HJM-046], for which the IC50 was found to be 2000 nM.

On to `O=C(Nc1cnc(NCc2c(F)ccc3c2CCO3)n2cnnc12)c1ncco1` [HJM-095], for which the IC50 came to 178 nM.

Regarding `Fc1ccc2c(c1CNc1ncc(OCCn3cccc3)c3nncn13)CCO2` [HJM-128], the IC50 is 62 nM.

For `Fc1ccc2c(c1CNc1ncc(OCc3cnccn3)c3nncn13)CCO2` [HJM-132], the IC50 turned out to be 123 nM.

Consider `CC(c1cnc(NCc2c(F)ccc3c2CCO3)n2cnnc12)N1CCCCC1` (stereo not shown) [HJM-009], for which the IC50 worked out at 563 nM.

With `CS(=O)(=O)N1CCC(c2cnc(NCc3c(F)ccc4c3CCO4)n3cnnc23)C1` (stereo not shown) [HJM-050], the IC50 was found to be 50.5 nM.

For `Fc1ccc2c(c1CNc1nccc3nncn13)CCO2` [HJM-001], the IC50 was 484 nM.

As for `CN1CCC(Oc2cnc(NCc3c(F)ccc4c3CCO4)n3cnnc23)C1=O` (stereo not shown) [HJM-135], the IC50 was determined as 286 nM.

Regarding `CC1COCCN1c1cnc(NCc2c(F)ccc3c2CCO3)n2cnnc12` (stereo not shown) [HJM-061], the 50% inhibitory concentration (IC50) worked out at 110 nM.

On to `CS(=O)(=O)c1ccc(C(=O)Nc2cnc(NCc3c(F)ccc4c3CCO4)n3cnnc23)cc1` [HJM-093], for which the half-inhibitory concentration (IC50) is 814 nM.

For the compound `Cc1ncccc1COc1cnc(NCc2c(F)ccc3c2CCO3)n2cnnc12` [HJM-021], the concentration for half-maximal inhibition (IC50) was found to be 242 nM.

For `CN1CCCC(c2cnc(NCc3c(F)ccc4c3CCO4)n3cnnc23)C1` (stereo not shown) [HJM-053], the IC50 was 28.8 nM.

As to `OCCN1CCC(c2cnc(NCc3c(F)ccc4c3CCO4)n3cnnc23)CC1` [HJM-058], the IC50 amounted to 131 nM.

Take `Fc1ccc2c(c1CNc1ncc(C3CCCCO3)c3nncn13)CCO2` (stereo not shown) [HJM-004, N-((5-fluoro-2,3-dihydrobenzofuran-4-yl)methyl)-8-(tetrahydro-2H-pyran-2-yl)-[1,2,4]triazolo[4,3-c]pyrimidin-5-amine]: the IC50 was determined as 140 nM.

Consider `Fc1ccc2c(c1CNc1ncc(C3CCCCC3)c3nncn13)CCO2` [HJM-051], for which the half-maximal inhibitory concentration (IC50) came to 167 nM.

As to `[2H]C([2H])(Nc1ncc(OCC2COC2)c2nncn12)c1c(F)ccc2c1CCO2` [HJM-109], the concentration for half-maximal inhibition (IC50) came out at 24.7 nM.

Consider `CC(Oc1cnc(NCc2c(F)ccc3c2CCO3)n2cnnc12)c1cccnc1` (stereo not shown) [HJM-133], for which the IC50 was determined as 74.4 nM.

Take `Fc1ccc2c(c1CNc1ncc(OCc3cnco3)c3nncn13)CCO2` [HJM-134]: the half-maximal inhibitory concentration (IC50) was determined as 159 nM.

`O=C(c1cnc(NCc2c(F)ccc3c2CCO3)n2cnnc12)N1CCCCC1` [HJM-028]: the half-inhibitory concentration (IC50) came out at 95.3 nM.

For `Fc1ccc2c(c1CNc1ncc(C3CCN(CC(F)(F)F)CC3)c3nncn13)CCO2` [HJM-057], the IC50 came out at 40.5 nM.

In the case of `O=C(CO)Nc1cnc(NCc2c(F)ccc3c2CCO3)n2cnnc12` [HJM-075], the IC50 came to 690 nM.

On to `Fc1ccc2c(c1CNc1ncc(OCCN3CCOCC3)c3nncn13)CCO2` [HJM-013], for which the 50% inhibitory concentration (IC50) stood at 225 nM.

As to `[2H]C([2H])(Nc1ncc(N(C)C(=O)C2CC2)c2nncn12)c1c(F)ccc2c1CCO2` [HJM-077], the half-maximal inhibitory concentration (IC50) amounted to 14.9 nM.

For the compound `CN(CCN1CCOCC1)c1cnc(NCc2c(F)ccc3c2CCO3)n2cnnc12` [HJM-024], the IC50 is 1110 nM.

For `CN1CCN(C(=O)Nc2cnc(NCc3c(F)ccc4c3CCO4)n3cnnc23)CC1` [HJM-097], the IC50 stood at 792 nM.

Consider `Fc1ccc2c(c1CNc1ncc(OCc3ccccn3)c3nncn13)CCO2` [HJM-142], for which the half-maximal inhibitory concentration (IC50) was 39.7 nM.

Consider `COCCC(=O)Nc1cnc(NCc2c(F)ccc3c2CCO3)n2cnnc12` [HJM-034], for which the half-maximal inhibitory concentration (IC50) was determined as 99.5 nM.

Turning to `O=C(Nc1cnc(NCc2c(F)ccc3c2CCO3)n2cnnc12)C1CCOCC1` [HJM-041], the IC50 came out at 334 nM.

On to `O=C(NCCOc1cnc(NCc2c(F)ccc3c2CCO3)n2cnnc12)C1CC1` [HJM-147], for which the IC50 worked out at 95.3 nM.

On to `Fc1ccc2c(c1CNc1ncc(/C=C/CN3CCCCC3)c3nncn13)CCO2` [HJM-006], for which the half-maximal inhibitory concentration (IC50) is 48.7 nM.

Consider `CC(=O)Nc1cnc(NCc2c(F)ccc3c2CCO3)n2cnnc12` [HJM-069], for which the IC50 is 391 nM.

For the compound `[2H]C([2H])(Nc1ncc(OC2CCOCC2)c2nncn12)c1c(F)ccc2c1CCO2` [HJM-110], the half-maximal inhibitory concentration (IC50) amounted to 32.8 nM.

As for `Fc1ccc2c(c1CNc1ncc(CCCN3CCCCC3)c3nncn13)CCO2` [HJM-008], the IC50 was 112 nM.

Turning to `O=C(Nc1cnc(NCc2c(F)ccc3c2CCO3)n2cnnc12)c1cnco1` [HJM-094], the half-maximal inhibitory concentration (IC50) was 223 nM.

On to `O=C(NC1CC1)c1cnc(NCc2c(F)ccc3c2CCO3)n2cnnc12` [HJM-029], for which the IC50 is 82.2 nM.

Turning to `O=C(Nc1cnc(NCc2c(F)ccc3c2CCO3)n2cnnc12)C1CCCOC1` (stereo not shown) [HJM-040], the IC50 was found to be 175 nM.

Take `[2H]C([2H])(Nc1ncc(OC([2H])([2H])C2COC2)c2nncn12)c1c(F)ccc2c1CCO2` [HJM-112]: the IC50 turned out to be 29.4 nM.

With `Fc1ccc2c(c1CNc1ncc(OCCn3cncn3)c3nncn13)CCO2` [HJM-129], the concentration for half-maximal inhibition (IC50) turned out to be 389 nM.

As to `O=C(N1CCC(c2cnc(NCc3c(F)ccc4c3CCO4)n3cnnc23)CC1)C(F)(F)F` [HJM-056], the IC50 turned out to be 12.8 nM.

`CC(C)C(=O)Nc1cnc(NCc2c(F)ccc3c2CCO3)n2cnnc12` [HJM-071]: the IC50 was determined as 72.8 nM.

As to `CN1CC(Oc2cnc(NCc3c(F)ccc4c3CCO4)n3cnnc23)CC1=O` (stereo not shown) [HJM-136], the concentration for half-maximal inhibition (IC50) was determined as 394 nM.

Turning to `N#CCC(=O)Nc1cnc(NCc2c(F)ccc3c2CCO3)n2cnnc12` [HJM-074], the IC50 was determined as 554 nM.

As to `Fc1ccc2c(c1CNc1ncc(OC(F)F)c3nncn13)CCO2` [HJM-150], the half-maximal inhibitory concentration (IC50) stood at 38.5 nM.

Regarding `COCCN1CC(C(=O)Nc2cnc(NCc3c(F)ccc4c3CCO4)n3cnnc23)C1` [HJM-088], the IC50 stood at 601 nM.

Take `O=C1CCCCN1c1cnc(NCc2c(F)ccc3c2CCO3)n2cnnc12` [HJM-068]: the IC50 was 138 nM.

As for `Fc1ccc2c(c1CNc1ncc(OCC3CC3(F)F)c3nncn13)CCO2` (stereo not shown) [HJM-108], the 50% inhibitory concentration (IC50) amounted to 126 nM.

For `CN1CC(COc2cnc(NCc3c(F)ccc4c3CCO4)n3cnnc23)C1` [HJM-116], the IC50 is 550 nM.

Still in this assay, the particulars now being: Homo sapiens, HeLa, 72 h, read-out: PD IC50.
Consider `O=C(Nc1cnc(NCc2c(F)ccc3c2CCO3)n2cnnc12)c1cccnc1` [HJM-043], for which the half-maximal inhibitory concentration (IC50) came out at 115 nM.

As for `Fc1ccc2c(c1CNc1ncc(Nc3ccccc3)c3nncn13)CCO2` [HJM-066], the IC50 worked out at 228 nM.

Turning to `CN(C)C(=O)COc1cnc(NCc2c(F)ccc3c2CCO3)n2cnnc12` [HJM-149], the half-inhibitory concentration (IC50) is 546 nM.
